Columns and labels:
[1] = biological target: T1, 5-hydroxytryptamine receptor 1A (Rattus norvegicus, UniProt P19327); experiment: Binding affinity against 5-hydroxytryptamine 1A receptor in rat cerebral cortical membrane using [3H]-8-OH-DPAT as radioligand.; format: cell membranes
T1 sequence (P19327 whole entry): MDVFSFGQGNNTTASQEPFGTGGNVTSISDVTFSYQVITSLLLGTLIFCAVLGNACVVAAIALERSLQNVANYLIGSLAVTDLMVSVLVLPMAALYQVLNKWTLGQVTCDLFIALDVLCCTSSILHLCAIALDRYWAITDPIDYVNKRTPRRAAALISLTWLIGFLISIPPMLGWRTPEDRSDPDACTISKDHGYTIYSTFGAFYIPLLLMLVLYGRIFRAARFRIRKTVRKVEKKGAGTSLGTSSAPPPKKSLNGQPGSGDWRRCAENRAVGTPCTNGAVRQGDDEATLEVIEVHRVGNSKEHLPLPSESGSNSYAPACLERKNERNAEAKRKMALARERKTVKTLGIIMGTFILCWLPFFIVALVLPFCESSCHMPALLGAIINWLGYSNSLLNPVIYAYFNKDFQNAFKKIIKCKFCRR

[2] = biological target: T2, Adrenergic receptor alpha-2 (Rattus norvegicus, UniProt P22086+P19328+P22909); experiment: Binding affinity against alpha-2 adrenergic receptor in rat cerebral cortical membrane using [3H]yohimbine as radioligand.; format: cell membranes
T2 sequence (P22086 whole entry): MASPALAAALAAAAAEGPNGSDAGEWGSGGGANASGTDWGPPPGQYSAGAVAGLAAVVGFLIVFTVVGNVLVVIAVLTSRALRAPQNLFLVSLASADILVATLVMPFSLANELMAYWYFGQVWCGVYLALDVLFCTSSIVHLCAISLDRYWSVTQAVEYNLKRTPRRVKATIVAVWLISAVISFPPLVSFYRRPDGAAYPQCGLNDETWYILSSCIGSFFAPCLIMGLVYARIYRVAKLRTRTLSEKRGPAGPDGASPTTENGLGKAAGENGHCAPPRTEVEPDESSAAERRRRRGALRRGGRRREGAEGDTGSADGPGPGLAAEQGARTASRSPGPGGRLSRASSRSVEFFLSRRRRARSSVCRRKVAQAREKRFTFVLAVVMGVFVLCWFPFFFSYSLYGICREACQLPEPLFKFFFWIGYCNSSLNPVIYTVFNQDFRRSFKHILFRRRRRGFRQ
T2 sequence (P19328 whole entry): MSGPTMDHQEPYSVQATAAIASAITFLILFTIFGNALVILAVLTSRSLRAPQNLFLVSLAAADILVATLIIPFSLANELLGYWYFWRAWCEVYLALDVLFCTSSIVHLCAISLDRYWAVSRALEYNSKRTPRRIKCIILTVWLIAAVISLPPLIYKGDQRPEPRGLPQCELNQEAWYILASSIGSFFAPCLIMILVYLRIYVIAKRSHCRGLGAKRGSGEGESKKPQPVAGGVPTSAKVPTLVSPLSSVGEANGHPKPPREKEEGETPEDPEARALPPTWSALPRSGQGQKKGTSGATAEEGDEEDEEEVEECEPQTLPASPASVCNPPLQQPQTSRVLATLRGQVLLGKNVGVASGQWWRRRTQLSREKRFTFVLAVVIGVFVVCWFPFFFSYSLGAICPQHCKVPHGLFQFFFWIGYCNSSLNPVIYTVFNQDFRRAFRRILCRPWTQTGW
T2 sequence (P22909 whole entry): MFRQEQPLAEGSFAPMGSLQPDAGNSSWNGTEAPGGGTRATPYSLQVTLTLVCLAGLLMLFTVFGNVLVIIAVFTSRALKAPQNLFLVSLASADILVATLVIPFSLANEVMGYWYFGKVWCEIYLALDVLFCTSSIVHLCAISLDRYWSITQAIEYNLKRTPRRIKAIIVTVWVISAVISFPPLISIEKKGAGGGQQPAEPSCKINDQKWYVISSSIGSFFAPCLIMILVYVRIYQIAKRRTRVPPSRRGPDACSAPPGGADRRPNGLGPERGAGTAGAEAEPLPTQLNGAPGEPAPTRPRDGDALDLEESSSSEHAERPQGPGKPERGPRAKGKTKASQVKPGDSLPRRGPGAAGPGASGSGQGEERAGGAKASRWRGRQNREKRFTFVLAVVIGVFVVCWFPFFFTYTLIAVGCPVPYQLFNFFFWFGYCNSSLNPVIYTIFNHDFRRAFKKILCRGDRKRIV

Structure (SMILES) | Ki [1] [µM] | Log Ki [2]
C=CCN1CCc2c(Cl)ccc3c2C(CCC3)C1 (stereo not given) | 0.00794 | -6.1
CCCN1CCc2cccc3c2C(CCC3)C1.Cl (stereo not given) | 0.0501 | -6
CN1CCc2c(Cl)ccc3c2[C@@H](CCC3)C1 | 0.02 | -7
COc1ccc2c3c1CCN(C)CC3CCC2.Cl (stereo not given) | 0.0251 | -6.8
CN1CCc2c(O)ccc3c2C(CCC3)C1.Cl (stereo not given) | 0.316 | -6.2
Br.COc1ccc2c3c1CCN(C)CC3CC2 (stereo not given) | 0.1 | -6.9
C=CCN1CCc2cccc3c2C(CCC3)C1.Cl (stereo not given) | 0.02 | -6.1
O=C1CC2(CCCC2)CC(=O)N1CCCCN1CCc2cccc(Cl)c2CC1 | 0.00501 | 
CCN1CCc2cccc3c2C(CCC3)C1.Cl (stereo not given) | 0.0501 | -6.2
C=CCOc1ccc2c3c1CCN(C)CC3CCC2.Cl (stereo not given) | 0.631 | -7.5
CN1CCc2ccc(Cl)c3c2C(CC3)C1 (stereo not given) | 0.0251 | -6.8
Br.CN1CCc2c(Cl)ccc3c2C(CC3)C1 (stereo not given) | 0.0251 | -8.1
CN1CCc2cccc3c2[C@H](CCC3)C1.Cl | 0.0316 | -5.6
Cl.c1cc2c3c(c1)CCNCC3CCC2 (stereo not given) | 0.2 | -5.9
Br.CN1CCc2ccc(Cl)c3c2C(CCCC3)C1 (stereo not given) | 5.01 | -6.2
CN1CCc2c(Cl)ccc3c2C(CCCC3)C1 (stereo not given) | 0.0794 | -6.5
CCCN1CCc2c(Cl)ccc3c2C(CCC3)C1 (stereo not given) | 0.0316 | -6.4
CN1CCc2cccc3c2[C@@H](CCC3)C1.Cl | 0.0631 | -6.4
CN1CCc2cccc(Cl)c2CC1 | 0.1 | -8.1
CN1CCc2c[nH]c3cccc(c23)C1.Cl | 1.26 | -6

Structure (SMILES) | Ki [1] [µM] | Log Ki [2]
Cl.c1ccc(CCN2CCc3cccc4c3C(CCC4)C2)cc1 (stereo not given) | 0.794 | -6.2
CN1CCc2c(Cl)ccc3c2C(CCC3)C1 (stereo not given) | 0.01 | -6.9
C=CCN1CCc2c(OC)ccc3c2C(CCC3)C1.Cl (stereo not given) | 0.0126 | -6
O=C1CC2(CCCC2)CC(=O)N1CCCCN1CCc2ccccc2CC1 | 0.0251 | 
CN1CCc2c(Cl)ccc3c2[C@H](CCC3)C1 | 0.00631 | -6.6
Br.CN1CCc2cccc3c2C(CC3)C1 (stereo not given) | 0.0158 | -6.6
COc1ccc2c3c1CN(C)CCC3CCC2.Cl (stereo not given) | 6.31 | -5.9
CN1CCc2cccc3c2C(CCCC3)C1.Cl (stereo not given) | 0.398 | -5.9
COc1ccc2c3c1CN(C)CC3CCC2.Cl (stereo not given) | 0.2 | -6.8
CN1CCc2ccc(Cl)c3c2C(CCC3)C1 (stereo not given) | 0.0794 | -6
Br.CN1CCc2c(Cl)ccc3[nH]cc(c23)C1 | 0.0316 | -6.8
Cl.O=C1CC2(CCCC2)CC(=O)N1CCCCN1CCc2cccc3c2C(CCC3)C1 (stereo not given) | 0.0398 | -5.9
CN1CCc2ccc(Cl)c3c2[C@H](CCC3)C1 | 0.0501 | -5.8
COc1ccc2c3c1CCN(C)C3CCC2 (stereo not given) | 3.16 | 
CN1CCc2ccc(Cl)c3c2[C@@H](CCC3)C1 | 0.126 | -6.4
CCN1CCc2c(Cl)ccc3c2C(CCC3)C1 (stereo not given) | 0.0158 | -6.5
CN1CCc2cccc3c2C(CCC3)C1.Cl (stereo not given) | 0.0501 | -5.9
O=C1CC2(CCCC2)CC(=O)N1CCCCN1CCc2c(Cl)ccc3c2C(CCC3)C1 (stereo not given) | 0.00794 | -5.5
Br.CN1CCc2cccc3[nH]cc(c23)C1 | 0.1 | -6.3
